This is an account of results in ChEMBL document CHEMBL1201862, “PubChem BioAssay data set” (2004).

Common to all, as to assay: DTP human tumour cell line panel, 48 h
The subject of experiment [1] is A498.
Experiment [2] concerns EKVX.
In experiment [3] the test system is HCT-116.
Experiment [4] relates to HCT-15.
Experiment [5] relates to HL-60.
Experiment [6] deals with K562.
In experiment [7] the test system is KM-20L2.
For experiment [8], the system named is M19-MEL.
The subject of experiment [9] is MOLT-4.
For experiment [10], the system named is NCI-H23.
Experiment [11] deals with NCI-H460.
Experiment [12] has as its system OVCAR-8.
In experiment [13] the test system is SK-MEL-28.
For experiment [14], the system named is SK-MEL-2.
Experiment [15] deals with SK-OV-3.
Experiment [16] relates to SNB-19.
The test system of experiment [17] is SNB-78.
The subject of experiment [18] is XF498.
The subject of experiment [19] is NCI-H226.

SMILES strings stand for the structures.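 Growth conditions: 96-well plates. Treatment: test compound, 48 hours, 5 concentrations. Analysis: linear interpolation between bracketing concentrations; unreached endpoints set to highest concentration. At the GI50, growth is halved.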 Active and inactive are the calls of the source. Cut-off read from the data, not from the text of the source: active = GI50 up to about 1.1 µM and inactive = higher.

Take `CC(C)(C)/N=C/N1C=Cc2nc3ccccc3cc2C1`: the GI50 was > 100 µM (inactive) in experiment [1]; > 100 µM (inactive) in experiment [2]; > 100 µM (inactive) in [3]; 57.1 µM in experiment [4]; 75.7 µM (inactive) in experiment [5]; > 100 µM (inactive) in experiment [6]. The GI50 is > 100 µM (inactive) in [7]; > 100 µM (inactive) in [8]; > 100 µM (inactive) in [9]; > 100 µM (inactive) in [10]; 32.6 µM (inactive) in experiment [11]; > 100 µM (inactive) in [12]. Besides, the GI50 in [13], in experiment [14], in [15], in experiment [16], in experiment [17] and in experiment [18] was > 100 µM (inactive) in each case.
On to `CC/C(SC)=[N+](\C)[O-]`, for which the GI50 in experiment [1] is > 100 µM (inactive); in [2] it was > 100 µM (inactive); in [3], > 46.9 µM (inactive); in experiment [4], 57.9 µM; in [5], 17.9 µM (inactive); in [6], 44.2 µM (inactive). The GI50 in experiment [7] is > 100 µM (inactive); in experiment [8] it was > 100 µM (inactive); in experiment [9], 32.7 µM (inactive); in [19], > 100 µM (inactive); in experiment [10], > 100 µM (inactive); in experiment [11] it was > 100 µM (inactive). Besides, the GI50 in [12], in [13], in [14], in [15], in [16] and in experiment [17] was > 100 µM (inactive) each time. Further, the GI50 in experiment [18] was > 100 µM (inactive).
`O=C1OC(c2ccccc2)=N/C1=C/NC(Cc1c[nH]c2ccccc12)C(=O)O` (stereo not given): the GI50 in [1] was > 100 µM (inactive); in experiment [2], > 100 µM (inactive); in experiment [3] it was > 100 µM (inactive); in experiment [4], more than 100 µM; in experiment [5], > 100 µM (inactive); in experiment [6], > 100 µM (inactive). The GI50 in experiment [7], in [8], in experiment [9], in experiment [19], in experiment [10] and in experiment [11] was > 100 µM (inactive) each time. The GI50 in experiment [12], in experiment [13], in experiment [14], in experiment [15], in [16] and in experiment [17] was > 100 µM (inactive) in each case. Moreover, the GI50 in [18] was > 100 µM (inactive).
For the compound `O=C1C2C3C=CC(C2C(=O)N1CO)C1C2C(=O)N(CO)C(=O)C2C31` (stereo not given), the GI50 was > 100 µM (inactive) in experiment [1]; > 100 µM (inactive) in experiment [2]; > 44.5 µM (inactive) in experiment [3]; 37 µM in experiment [4]; > 48.6 µM (inactive) in experiment [6]; > 31.6 µM (inactive) in [7]. Also, the GI50 in experiment [8] is > 68.5 µM (inactive); in experiment [9], 74.1 µM (inactive); in experiment [19], > 100 µM (inactive); in [10] it was > 100 µM (inactive); in [11] it was 27.9 µM (inactive); in [12] it was 36.4 µM (inactive). Besides, the GI50 in experiment [13] is > 84.1 µM (inactive); in experiment [14], > 100 µM (inactive); in experiment [15], > 100 µM (inactive); in experiment [16] it was > 100 µM (inactive); in experiment [17], > 100 µM (inactive); in experiment [18], > 100 µM (inactive).
For `COc1ccc2c(c1)CCc1c(CO)c(COC(=O)NC(C)C)n(C)c1-2`, the GI50 in experiment [1] is 9.29 µM (inactive); in experiment [2], 22.9 µM (inactive); in [3], 2.91 µM (inactive); in experiment [4], 13 µM; in experiment [5], 1.59 µM (inactive); in experiment [6], 2.41 µM (inactive). For the same compound, the GI50 was 6.59 µM (inactive) in [7]; 3.7 µM (inactive) in [8]; 2.68 µM (inactive) in [9]; 2.68 µM (inactive) in experiment [19]; 2.97 µM (inactive) in [10]; 5.56 µM (inactive) in experiment [11]. In addition, the GI50 is 3.33 µM (inactive) in experiment [12]; 5.02 µM (inactive) in experiment [13]; 11.2 µM (inactive) in [14]; 18.3 µM (inactive) in experiment [15]; 6.87 µM (inactive) in [16]; 4.38 µM (inactive) in experiment [17]. For the same compound, the GI50 in experiment [18] was 7.83 µM (inactive).
Turning to `CC(C)OP(=O)(OC(C)C)/C(=N/Nc1ccc([N+](=O)[O-])cc1)NN`, the GI50 in experiment [1] is > 100 µM (inactive); in experiment [2], 61.9 µM (inactive); in experiment [3] it was > 100 µM (inactive); in experiment [4], more than 100 µM; in experiment [5] it was > 100 µM (inactive); in experiment [6], 65.9 µM (inactive). Besides, the GI50 in experiment [7] is > 100 µM (inactive); in experiment [8] it was > 100 µM (inactive); in experiment [9], 61.9 µM (inactive); in experiment [19], 0.592 µM (active); in experiment [10], 55.2 µM (inactive); in experiment [11], > 100 µM (inactive). In addition, the GI50 is > 100 µM (inactive) in experiment [12]; > 100 µM (inactive) in [13]; > 100 µM (inactive) in experiment [14]; > 100 µM (inactive) in experiment [16]; > 100 µM (inactive) in experiment [17]; 68.9 µM (inactive) in experiment [18].
For the compound `CC1=CC2CC(C)C1(C)CCc1ccoc12` (stereo not given), the GI50 in experiment [1] was > 100 µM (inactive); in experiment [2], > 100 µM (inactive); in experiment [3] it was > 100 µM (inactive); in experiment [4], more than 100 µM; in experiment [5], > 100 µM (inactive); in [6], > 100 µM (inactive). Besides, the GI50 in [7], in [8], in experiment [9], in experiment [10], in [11] and in experiment [12] was > 100 µM (inactive) each time. Moreover, the GI50 in experiment [13], in experiment [14], in [15], in [16], in experiment [17] and in experiment [18] was > 100 µM (inactive) in each case.
On to `CNc1ccc2ncccc2c1[N+](=O)[O-]`, for which the GI50 in experiment [1] was > 100 µM (inactive); in experiment [2], > 100 µM (inactive); in experiment [3], > 100 µM (inactive); in [4] it was more than 100 µM; in experiment [5], > 100 µM (inactive); in experiment [6], > 100 µM (inactive). The GI50 in [7], in experiment [8], in experiment [9], in [19], in experiment [10] and in experiment [11] was > 100 µM (inactive) throughout. Further, the GI50 in [12], in experiment [13], in [14], in experiment [16], in experiment [17] and in experiment [18] was > 100 µM (inactive) each time.
Turning to `CC1CC(c2ccc(Cl)c(Cl)c2)=Nc2ccccc2S1` (stereo not given), the GI50 in experiment [1] was > 100 µM (inactive); in [2] it was > 100 µM (inactive); in [3], > 100 µM (inactive); in experiment [4], more than 100 µM; in experiment [5] it was > 100 µM (inactive); in experiment [6], > 100 µM (inactive). Further, the GI50 in experiment [7], in experiment [8], in experiment [9], in experiment [19], in [10] and in experiment [11] was > 100 µM (inactive) each time. The GI50 in experiment [12], in experiment [13], in experiment [15], in experiment [16], in experiment [17] and in experiment [18] was > 100 µM (inactive) throughout.
As for `Clc1ccc2cccc3c2c1C1OC3c2ccccc21` (stereo not given), the GI50 in experiment [1] was > 100 µM (inactive); in [2] it was > 100 µM (inactive); in [3], > 100 µM (inactive); in experiment [5] it was > 100 µM (inactive); in experiment [6] it was 66.7 µM (inactive); in experiment [7] it was 78.9 µM (inactive). Further, the GI50 in experiment [8], in [9], in experiment [19], in experiment [10], in experiment [12] and in experiment [13] was > 100 µM (inactive) throughout. Also, the GI50 in experiment [14], in [15], in [16], in experiment [17] and in experiment [18] was > 100 µM (inactive) each time.
As to `C[n+]1c2ccccc2c(NC(CCCNC(=N)N)C(=O)O)c2ccccc21` (stereo not given), the GI50 is > 100 µM (inactive) in [1]; > 100 µM (inactive) in [2]; > 100 µM (inactive) in experiment [3]; more than 100 µM in experiment [4]; 39.1 µM (inactive) in experiment [5]; > 100 µM (inactive) in experiment [6]. For the same compound, the GI50 in experiment [7], in experiment [8], in experiment [9], in experiment [19], in experiment [10] and in experiment [11] was > 100 µM (inactive) throughout. Besides, the GI50 in experiment [12], in [14], in experiment [15], in [16], in experiment [17] and in experiment [18] was > 100 µM (inactive) in each case.
